Like-named read-outs stand apart in the source and are kept apart here.
Tests used:
[1] = tested on: MCE encoded by the malathion resistant allele of LcαE7; experiment: Sensitivity of MCE activity to TPP (titration/preincubation of cell extract); format: biochemical, L. cuprina
[2] = target: Lucilia cuprina LcαE7 (esterase E3) gene product, malathion resistant allele (strain RM-8), Trp to Leu at position 251 (Lucilia cuprina, UniProt Q25252, W251L); experiment: sensitivity of MCE activity to TPP, expressed malathion resistant LcαE7 product; format: biochemical; conditions: TPP 8×10^−8M, preincubation 15, 30 or 45 minutes
[3] = tested on: malathion resistant strains of M. domestica, C. putoria and L. cuprina; conditions: literature, cited from earlier work
[4] = tested on: MCE activity associated with malathion resistance in M. domestica, C. putoria and L. cuprina; conditions: literature; cited from earlier work

O=P(Oc1ccccc1)(Oc1ccccc1)Oc1ccccc1 [TPP, triphenylphosphate]
turnover of TPP by MCE ([1]; TPP 8×10^−8M preincubated 15, 30 or 45 minutes with cell extract): not being turned over
concentration giving stoichiometric inhibition of MCE activity ([1]; expressed product of malathion resistant LcαE7 allele, substrate malathion): below 10^−7 M
residual MCE activity at different preincubation times / completeness of inhibition by TPP [2]: no significant difference between the residual MCE activity at each of the preincubation times
turnover of TPP by MCE [2]: TPP was not being turned over by MCE
synergism of malathion ([3]; listed as triphenylphosphate): best synergists
synergism of malathion [3]: potent synergism of malathion by TPP
sensitivity of MCE activity to inhibition by TPP [4]: High sensitivity to inhibition by TPP

From patent US7091025B2, “Malathion carboxylesterase” (priority 1995, dated 2006)
